Measurements from patent publication US20220370384A1, “COMBINATIONS OF MEK INHIBITORS WITH CAP-DEPENDENT ENDONUCLEASE INHIBITORS” (priority 2019, published 2022).

Assays:
Format in all cases: cell-based, influenza virus
[1] = test system: rgA/Victoria/3/75 (H3N2-WT)
[2] = test system: rgA/Giessen/6/09 (H1N1-WT)
[3] = test system: wild type (wt) strain of A/Mississippi/3/2001 (H1N1)

## O=C(O)c1ccc(F)c(F)c1Nc1ccc(I)cc1Cl [ATR002, 2-(2-chloro-4-iodophenylamino)-N-3,4-difluoro benzoic acid]
[1]
  antiviral activity: revealed its potency against both variants
[2]
  activity lower (than BLXM): 13%

## COC(=O)OCOc1c2n(ccc1=O)N([C@@H]1c3ccccc3SCc3c1ccc(F)c3F)[C@@H]1COCCN1C2=O [BLXM]
[2]
  reduction of the viral titer: approximate complete reduction of the viral titer

## O=C(NOCC1CC1)c1ccc(F)c(F)c1Nc1ccc(I)cc1Cl [CI-1040]
[3]
  antiviral effectiveness: very effective

## CCOC(=O)C1=C[C@@H](OC(CC)CC)[C@H](NC(C)=O)[C@@H](N)C1 [oseltamivir]
[3]
  antiviral effectiveness: very effective
